Publication PMC7395068, “The evolution of strategies to minimise the risk of human drug-induced liver injury (DILI) in drug discovery and development” (Archives of Toxicology, 2020)
Like-named read-outs stand apart in the source and are kept apart here.

Experiments:
[1] = system: primary human hepatocytes, NIH3T3 fibroblasts, BSEP, CYP3A4; settings: cited from earlier work
[2] = system: HepaRG spheroids; assay: Combined HCI (HCS) and cellular ATP 3D assay in HepaRG spheroids; settings: for AC50 / minimal effective concentration: Homo sapiens
Method: (§1) 3D spheroid models consisting of either primary human hepatocytes with non-parenchymal cells (hLiMT’s) or HepaRG cells (HepaRG spheroids) were assessed for size (MS), oxidative stress (OS), MMP, mitochondrial mass (MM), GSH and cellular ATP content following drug exposure. Fluorescent images are acquired using the confocal mode of an ArrayScan™ XTI HCI reader (ThermoScientific) following which cellular ATP was measured using 3D CellTiter-Glo (Promega).

[3] = system: HepG2 cells, primary human hepatocytes; settings: In vitro Assay; ref Garside 2014; cited from earlier work
[4] = system: rBsep; settings: In vitro Assay; ref Dawson 2012; cited from earlier work
[5] = system: hLiMTs; assay: Combined HCI (HCS) and cellular ATP 3D assay in hLiMTs
Method: as §1

[6] = cited from earlier work
[7] = system: PHH spheroids; settings: cited from earlier work
[8] = ref Chen 2011; cited from earlier work
[9] = cited from earlier work; remark: listed apart in the source
[10] = Plasma free fraction (fu) and unbound Cmax (Cmax,u); format: in vitro ADME, human; settings: unbound plasma Cmax
Method: The prediction of DILI severity was evaluated further using the 3D combined HCI assays using plasma-free fraction. The majority of fu values were obtained from literature, when unavailable in-house prediction was utilised. Unbound plasma Cmax concentrations (Cmax,u) were derived by multiplying total plasma Cmax with the corresponding free fraction (fu) for each compound.

[11] = system: THLE or HepG2 cells, isolated mitochondria, BSEP; settings: cited from earlier work
[12] = system: human hepatocytes; settings: cited from earlier work
[13] = system: hLiMTs; settings: cited from earlier work
[14] = system: PHH; settings: cited from earlier work
[15] = system: THLE-Null and THLE-3A4 cells; settings: In vitro Assay; ref Gustafsson 2014; cited from earlier work
[16] = system: HepG2 cells; settings: In vitro Assay; ref Tolosa 2012; cited from earlier work
[17] = system: HepG2 cells; settings: cited from earlier work
[18] = system: HepG2 cells; settings: cited from earlier work; remark: listed apart in the source
[19] = plasma free fraction; cited from earlier work
[20] = system: Upcyte human hepatocytes; settings: In vitro Assay; ref Tolosa 2019; cited from earlier work
[21] = read-out: Human plasma Cmax; total plasma Cmax.tot, median of 9 literature references; cited from earlier work
[22] = system: HepG2 C3A spheroid, BSEP, Glu/Gal in HepG2 cells, bioactivation; settings: cited from earlier work
[23] = In vitro Assay, ref Schadt 2015
[24] = Microtissue model structural based (HCI), combined HCS and ATP, MEC < 25 × Cmax.tot cut-off
[25] = Modeled in vitro assays (cytotoxicity, mitochondrial dysfunction, BSEP), ref Aleo et al. 2019
[26] = In vitro Assay, ref Proctor 2017
[27] = In vitro Assay, ref Persson 2013

## CN(Cc1cnc2nc(N)nc(N)c2n1)c1ccc(C(=O)N[C@@H](CCC(=O)O)C(=O)O)cc1 [methotrexate, reference compound]
[1]; BSEP & Metabolism based, ref Schadt et al. 2015
  DILI in vitro assay prediction, Schadt (2015): -VE
[1]; [23]
  Cellular toxicity (3T3 cells): -VE
  GSH adduct HML: -VE
  Hepatocyte cellular toxicity: -VE
  MitoTox 3T3: -VE
  TDI CYP3A4: -VE
  hBSEP inhibition: -VE
[2]; HepaRG, ATP endpoint, cut-off <25x Avg Cmax
  HepaRG <25x Avg Cmax ATP: +ve
[2]; HepaRG, ATP endpoint, cut-off <100x Avg Cmaxu
  HepaRG <100x Avg Cmaxu ATP: +ve (<100x Avg Cmaxu)
[2]; HepaRG, HCS endpoints, cut-off <25x Avg Cmax
  HepaRG <25x Avg Cmax HCS: +ve
[2]; HepaRG, HCS endpoints, cut-off <100x Avg Cmaxu
  HepaRG <100x Avg Cmaxu HCS: +ve (<100x Avg Cmaxu)
[2]; HepaRG, all endpoints (ATP and HCS), cut-off <25x Avg Cmax
  HepaRG <25x Avg Cmax All: +ve
[2]; HepaRG, all endpoints, Cmax max used
  HepaRG Cmax max All: +ve
[2]; HepaRG, all endpoints, Cmax min used
  HepaRG Cmax min All: +ve
[2]; HepaRG, all endpoints, cut-off <10 uM
  HepaRG <10 uM All: +ve (<10 uM)
[2]; HepaRG, all endpoints, cut-off <100x Avg Cmaxu
  HepaRG <100x Avg Cmaxu All: +ve (<100x Avg Cmaxu)
[2]; HepaRG, read-out: ATP endpoint AC50
  AC50: 0.2 µM
[2]; HepaRG, read-out: ATP endpoint MEC
  minimal effective concentration: 0.2 µM
[2]; HepaRG, read-out: HCS endpoint AC50
  AC50: 0.2 µM
[2]; HepaRG, read-out: HCS endpoint MEC
  minimal effective concentration: 0.2 µM
[2]; [24]
  DILI prediction HepaRG spheroids (HCS-MEC): +VE (MEC < 25 × Cmax.tot cut-off)
[3]
  Cluster 1-6 +VE Assay: -VE
[4]
  Inhibition of rBsep cutoff<1& cmax u>.2: -VE
  Inhibition of rBsep cutoff<3: -VE
[5]; HCS endpoints only, 25 × Cmax.tot cut-off
  DILI prediction hLiMTs, HCI alone: detection
[5]; Homo sapiens, read-out: HCS endpoint AC50
  AC50: 16.9 µM
[5]; Homo sapiens, read-out: HCS endpoint MEC
  minimal effective concentration: 0.703 µM
[5]; [24]
  DILI prediction hLiMTs (HCS-MEC): +VE (MEC < 25 × Cmax.tot cut-off)
[5]; cellular ATP only, 25 × Cmax.tot cut-off
  DILI prediction hLiMTs, ATP alone: unpredicted
[5]; hLiMTs, ATP endpoint, cut-off <25x Avg Cmax
  hLiMTs <25x Avg Cmax ATP: -ve
[5]; hLiMTs, ATP endpoint, cut-off <100x Avg Cmaxu
  hLiMTs <100x Avg Cmaxu ATP: -ve
[5]; hLiMTs, HCS endpoints, cut-off <25x Avg Cmax
  hLiMTs <25x Avg Cmax HCS: +ve
[5]; hLiMTs, HCS endpoints, cut-off <100x Avg Cmaxu
  hLiMTs <100x Avg Cmaxu HCS: +ve (<100x Avg Cmaxu)
[5]; hLiMTs, all endpoints (ATP and HCS), cut-off <25x Avg Cmax
  hLiMTs <25x Avg Cmax All: +ve
[5]; hLiMTs, all endpoints, Cmax max used
  hLiMTs Cmax max All: +ve
[5]; hLiMTs, all endpoints, Cmax min used
  hLiMTs Cmax min All: -ve
[5]; hLiMTs, all endpoints, cut-off <10 uM
  hLiMTs <10 uM All: +ve (<10 uM)
[5]; hLiMTs, all endpoints, cut-off <100x Avg Cmaxu
  hLiMTs <100x Avg Cmaxu All: +ve (<100x Avg Cmaxu)
[6]; LTKB DILIrank category, ref Chen et al. 2016
  DILI severity category (Chen et al. [2016]): Most
[6]; human DILI classification, LTKB DILIrank, ref Chen et al. 2016
  DILI severity category (Chen 2016): Most
[6]; human DILI severity, ref Chen et al.
  DILI severity category: Most
[6]; ref Chen 2016
  DILI +VE (5-8), DILI -VE (-4): +VE
  DILI severity category: vMost-DILI-Concern
[7]; In vitro Assay, ref Vorrink 2018
  hLiMTs ATP <20 x Cmax: +VE (IC20 < 20 × Cmax.tot cut-off)
[7]; PHH spheroids, ATP, 14 days, IC20 < 20 × Cmax.tot, ref Vorrink et al. 2018
  DILI in vitro assay prediction, Vorrink (2018): +VE (IC20 < 20 × Cmax.tot cut-off)
[8]
  DILI Score (FDA) (1-8): 3
[9]; Chen et al. 2016 or literature alignment, ref Chen et al. 2016
  Assigned DILI category: 3
[9]; […]
  In vivo DILI: +VE
[9]; ref Aleo 2019
  In vivo DILI: +VE
[9]; ref Dawson 2012
  In vivo DILI: +VE
[9]; ref Garside 2014
  In vivo DILI: +VE
[9]; ref Gustafsson 2014
  In vivo DILI: +VE
[9]; ref O'Brien 2006
  In vivo DILI: +VE
[9]; ref Persson 2013
  In vivo DILI: +VE
[9]; ref Proctor 2017
  In vivo DILI: +VE
[9]; ref Schadt 2015
  In vivo DILI: +VE
[9]; ref Tolosa 2012
  In vivo DILI: +VE
[9]; ref Tolosa 2019
  In vivo DILI: +VE
[9]; ref Vorrink 2018
  In vivo DILI: +VE
[9]; ref Williams 2019
  In vivo DILI: +VE
[9]; ref Xu 2008
  In vivo DILI: +VE
[10]
  Human plasma Cmax,u: 2.315 µM
[11]; In vitro Assay, ref Aleo 2019
  Partition Hybrid HRM Score: +VE
  Ro2 Hybrid HRM Score: +VE
[11]; [25]
  Partition Hybrid HRM Score ≥4, Aleo (2019): +VE (Partition Hybrid HRM Score ≥4)
  Partition Hybrid HRM Score ≥8, Aleo (2019): -VE
  Rule of Two hybrid HRM Score ≥3, Aleo (2019): +VE (Rule of Two hybrid HRM Score ≥3)
  Rule of Two hybrid HRM Score ≥8, Aleo (2019): -VE
[12]; In vitro Assay, ref Xu 2008
  Structural based (HCI): -VE
[12]; Structural based (HCI), human hepatocytes, ref Xu et al. 2008
  DILI in vitro assay prediction, Xu (2008): -VE
[13]; [26]
  hLiMTs ATP <100uM: -VE
[13]; hLiMTs, ATP, IC50 threshold 100 µM, ref Proctor et al. 2017
  hLiMTs/100uM, Proctor (2017): -VE
[14]; 2D PHH, ATP, IC50 threshold 100 µM, ref Proctor et al. 2017
  PHH/100uM, Proctor (2017): -VE
[14]; [26]
  PHH ATP <100uM: -VE
[15]
  THLE-Null: -VE
[16]
  Structural based (HCI): +VE
[17]; In vitro Assay, ref O'Brien 2006
  Structural based (HCI): +VE
[17]; Structural based (HCI), HepG2, ref O'Brien et al. 2006
  DILI in vitro assay prediction, O'Brien (2006): +VE (lowest HCI endpoint IC50 (or in the absence of dose–response < 100 µM) < 30 × total human plasma exposure levels (Cmax.tot))
[18]; [27]
  Cluser analysis: -VE
  Structural based (HCI): -VE
[18]; Structural based (HCI), HepG2, ref Persson et al. 2013
  DILI in vitro assay prediction, Persson (2013): -VE
[19]
  fu: 0.500
[20]
  Upcytes multi donor assay 14day data: +VE
[21]
  Cmax: 4.63 µM
[22]; Bayesian modeling, ref Williams et al. 2019
  Bayesian Machine Learning DILI prediction, Williams (2019): +VE
[22]; In vitro Assay, ref Williams 2019
  Bayesian Machine Learning: +VE
